Numbered stars: 1 amine (or outer) side, 2 acyl side, 3 side chain; on linkers, the order of the positions; unused ones are H or OH. Square brackets hold non-standard residues; d marks the D form. Side chains are listed from the residue outwards. Peptide text beside a SMILES is read from it. * marks the point of attachment. C18 diacid = O=C(O)CCCCCCCCCCCCCCCCC(=O)*; γGlu = O=C(O)[C@H](CCC(=O)[*:2])N[*:1]; Aib = CC(C)(N)C(=O)O
Experiments:
Human GCGR = target: T1, Human GCGR (Homo sapiens, UniProt P47871); assay: Receptor potency, CRE-luciferase functional assay in BHK cells; assay type: cell-based; settings: Human receptors, whole BHK cells, 3 h 37°C, value (95% CI)
T1 construct: a plasmid encoding either the glucagon receptor or the GLP-1 receptor from the relevant species; expressed in transfected cells
T1 sequence (P47871 26-477): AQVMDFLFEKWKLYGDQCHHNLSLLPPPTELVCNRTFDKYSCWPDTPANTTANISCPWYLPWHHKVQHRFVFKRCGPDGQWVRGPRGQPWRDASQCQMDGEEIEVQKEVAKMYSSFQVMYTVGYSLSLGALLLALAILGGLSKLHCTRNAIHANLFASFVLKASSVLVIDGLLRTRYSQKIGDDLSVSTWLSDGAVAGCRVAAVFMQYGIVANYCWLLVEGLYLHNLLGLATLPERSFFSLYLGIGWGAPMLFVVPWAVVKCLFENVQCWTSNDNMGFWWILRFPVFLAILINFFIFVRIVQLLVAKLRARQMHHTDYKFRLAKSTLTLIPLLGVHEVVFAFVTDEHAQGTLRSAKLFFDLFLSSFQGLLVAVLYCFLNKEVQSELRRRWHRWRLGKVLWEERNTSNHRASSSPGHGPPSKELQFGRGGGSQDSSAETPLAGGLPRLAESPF

Human GLP-1R = Human GLP-1R (Homo sapiens, UniProt P43220); assay: as above; assay type: cell-based; settings: Human receptors, whole BHK cells, 100% species-specific plasma, 3 h 37°C, value (95% CI)
Human GLP-1R, sequence (P43220 24-463): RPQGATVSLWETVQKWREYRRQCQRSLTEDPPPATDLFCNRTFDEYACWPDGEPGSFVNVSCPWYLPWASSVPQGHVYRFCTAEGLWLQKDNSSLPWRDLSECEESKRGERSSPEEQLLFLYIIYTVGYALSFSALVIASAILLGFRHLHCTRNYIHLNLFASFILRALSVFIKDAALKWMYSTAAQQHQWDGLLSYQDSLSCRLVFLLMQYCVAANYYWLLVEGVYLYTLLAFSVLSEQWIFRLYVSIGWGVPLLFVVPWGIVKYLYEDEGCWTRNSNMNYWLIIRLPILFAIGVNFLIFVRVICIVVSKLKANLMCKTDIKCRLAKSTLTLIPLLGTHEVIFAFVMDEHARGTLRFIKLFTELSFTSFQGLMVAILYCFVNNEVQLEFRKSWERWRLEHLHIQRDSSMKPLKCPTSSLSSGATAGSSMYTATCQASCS

CC(C)C[C@H](NC(=O)[C@H](Cc1ccc(O)cc1)NC(=O)[C@H](CCCCN)NC(=O)[C@H](CO)NC(=O)[C@H](CC(C)C)NC(=O)[C@H](CC(=O)O)NC(=O)[C@H](CO)NC(=O)[C@@H](NC(=O)[C@H](Cc1ccccc1)NC(=O)[C@@H](NC(=O)CNC(=O)[C@H](CCC(N)=O)NC(=O)C(C)(C)NC(=O)[C@@H](N)Cc1c[nH]cn1)[C@@H](C)O)[C@@H](C)O)C(=O)N[C@@H](CCC(=O)O)C(=O)N[C@@H](CO)C(=O)N[C@@H](CCCCN)C(=O)N[C@@H](CCCNC(=N)N)C(=O)N[C@@H](C)C(=O)N[C@@H](CCCNC(=N)N)C(=O)N[C@@H](CCC(=O)O)C(=O)N[C@@H](Cc1ccccc1)C(=O)N[C@H](C(=O)N[C@@H](CCC(N)=O)C(=O)N[C@@H](Cc1c[nH]c2ccccc12)C(=O)N[C@@H](CC(C)C)C(=O)N[C@@H](CC(C)C)C(=O)N[C@@H](CCCCNC(=O)CC[C@H](NC(=O)CC[C@H](NC(=O)[C@H](CO)NC(=O)[C@H](CCC(=O)O)NC(=O)[C@H](CO)NC(=O)CC[C@H](NC(=O)CC[C@H](NC(=O)CCCCCCCCCCCCCCCCC(=O)O)C(=O)O)C(=O)O)C(=O)O)C(=O)O)C(=O)N[C@H](C(N)=O)[C@@H](C)O)C(C)C [NN1177] (H-H[Aib]QGTFTSDLSKYLESKRAREFVQWLLK([γGlu-γGlu-Ser-Glu-Ser-γGlu-γGlu-C18 diacid])T-NH2)
EC50 (Human GCGR; GCGR EC50, pM (95% CI) 0% plasma, 0% plasma): 1.83 pM | EC50 (Human GCGR; GCGR EC50, pM (95% CI) 100% plasma, 100% species-specific plasma): 312 pM | EC50 (Human GLP-1R): 0.149 nM

Reference: PMC8896685 (PLoS ONE, 2022)
